Measured values published in patent US20110053770A1, “SUBSTITUTED AMINOTHIAZOLES AND THEIR USE AS FUNGICIDES” (BAYER CROPSCIENCE AG, priority 2009, published 2011).
Marks after values point to notes of the source that are not given here.

Experiment: logP by HPLC on reversed-phase columns (C 18), EEC directive 79/831 Annex V.A8
Format: physicochemical
Details: for log P (**) / log P (***): LC-MS; for log P (**) / log P (*): acidic range; for log P (**): pH 2.7, 0.1% aqueous formic acid and acetonitrile; for log P (***): neutral range, pH 7.8, 0.001 molar aqueous ammonium bicarbonate and acetonitrile; for log P (*): pH 2.3, 0.1% aqueous phosphoric acid and acetonitrile
Protocol: Calibration was carried out using unbranched alkan-2-ones (having from 3 to 16 carbon atoms) with known logP values (the logP values were determined by the retention times using linear interpolation between two successive alkanones).

| log P (**) | log P (***) | log P (*) | Compound |
| --- | --- | --- | --- |
| 1.57** | – | – | Clc1ccc(-c2csc(N=C3CCCN3)n2)cc1 [compound 96, 4-(4-chlorophenyl)-N-[(2E/Z)-pyrrolidin-2-ylidene]-1,3-thiazole-2-amine] |
| 1.84 | 3.72 | 1.84 | Cc1sc(N=C2CCCCN2)nc1-c1ccc(Cl)cc1 [compound 31, 4-(4-chlorophenyl)-5-methyl-N-[(2E/Z)-piperidin-2-ylidene]-1,3-thiazole-2-amine] |
| 1.7 | 3.2 | 1.7 | Cc1sc(N=C2CCCCN2)nc1-c1cccc(F)c1F [compound 44, 4-(2,3-difluorophenyl)-5-methyl-N-[(2E/Z)-piperidin-2-ylidene]-1,3-thiazole-2-amine] |
| 2.07 | 4.28 | – | c1ccc(Cc2ccc(-c3csc(N=C4CCCCN4)n3)cc2)cc1 [compound 94, 4-(4-benzylphenyl)-N-[(2E/Z)-piperidin-2-ylidene]-1,3-thiazole-2-amine] |
| 3.63**; 3.63***; 3.63* | 3.63**; 3.63***; 3.63* | 3.63**; 3.63***; 3.63* | CC(=O)N1CCCCC1=Nc1nc(-c2cccc(F)c2F)cs1 [compound 37, 1-[(2E/Z)-2-{[4-(2,3-difluorophenyl)-1,3-thiazol-2-yl]imino}piperidin-1-yl]ethanone] |
| 2.51 | 4.86 | – | CC(C)(C)Cc1cccc(-c2csc(N=C3CCCCN3)n2)c1 [compound 47, 4-[3-(2,2-dimethylpropyl)phenyl]-N-[(2E/Z)-piperidin-2-ylidene]-1,3-thiazole-2-amine] |
| 1.76 | 3.92 | 1.76 | Clc1ccc(-c2csc(N=C3CCCCN3)n2)c(Cl)c1 [compound 104, 4-(2,4-dichlorophenyl)-N-[(2E/Z)-piperidin-2-ylidene]-1,3-thiazole-2-amine] |
| 1.57 | 3.22 | 1.57 | Fc1cc(F)cc(-c2csc(N=C3CCCCN3)n2)c1 [compound 29, 4-(3,5-difluorophenyl)-N-[(2E/Z)-piperidin-2-ylidene]-1,3-thiazole-2-amine] |
| 2.11 | 3.9 | 2.11 | Fc1ccc(Oc2ccccc2-c2csc(N=C3CCCCN3)n2)c(F)c1 [compound 7, 4-[2-(2,4-difluorophenoxy)phenyl]-N-[(2E/Z)-piperidin-2-ylidene]-1,3-thiazole-2-amine] |
| 2.2 | 4.35 | 2.2 | CC(C)(C)c1ccc(-c2csc(N=C3CCCCN3)n2)cc1 [compound 32, 4-(4-tert-butylphenyl)-N-[(2E/Z)-piperidin-2-ylidene]-1,3-thiazole-2-amine] |
| 1.77 | 3.54 | 1.77 | FC(F)(F)Oc1ccccc1-c1csc(N=C2CCCCN2)n1 [compound 15, N-[(2E/Z)-piperidin-2-ylidene]-4-[2-(trifluoromethoxy)phenyl]-1,3-thiazole-2-amine] |
| 1.38** | – | – | Brc1ccccc1-c1csc(N=C2CCCCN2)n1 [compound 107, 4-(2-bromophenyl)-N-[(2E/Z)-piperidin-2-ylidene]-1,3-thiazole-2-amine] |
| – | – | 0.71* | Clc1ncccc1-c1csc(N=C2CCCCN2)n1 [compound 53, 4-(2-chloropyridin-3-yl)-N-[(2E/Z)-piperidin-2-ylidene]-1,3-thiazole-2-amine] |
| 3.88**; 3.88***; 3.88* | 3.88**; 3.88***; 3.88* | 3.88**; 3.88***; 3.88* | CC(=O)N1CCCCC1=Nc1nc(-c2ccc(F)c(Cl)c2)cs1 [compound 41, 1-[(2E/Z)-2-{[4-(3-chloro-4-fluorophenyl)-1,3-thiazol-2-yl]imino}piperidin-1-yl]ethanone] |
| 1.94 | 3.72 | – | FC(F)(F)c1cccc(-c2csc(N=C3CCCCN3)n2)c1Cl [compound 8, 4-[2-chloro-3-(trifluoromethyl)phenyl]-N-[(2E/Z)-piperidin-2-yl-idene]-1,3-thiazole-2-amine] |
| 0.27** | – | – | c1ccc(-c2csc(N=C3CCCCN3)n2)nc1 [compound 61, N-[(2E/Z)-piperidin-2-ylidene]-4-(pyridin-2-yl)-1,3-thiazole-2-amine] |
| 3.09 | 5.53 | 3.09 | CC(C)(C)c1cc(Oc2ccccc2-c2csc(N=C3CCCN3)n2)ccc1Cl [compound 101, 4-[2-(3-tert-butyl-4-chlorophenoxy)phenyl]-N-[(2E/Z)-pyrrolidin-2-ylidene]-1,3-thiazole-2-amine] |

The next lines start with the molecule.

| Compound | log P (**) | log P (***) | log P (*) |
| --- | --- | --- | --- |
| c1cc2c(cc1-c1csc(N=C3CCCCN3)n1)OCO2 [compound 28, 4-(1,3-benzodioxol-5-yl)-N-[(2E/Z)-piperidin-2-ylidene]-1,3-thiazole-2-amine] | 1.41 | 2.65 | 1.41 |
| CCOc1ccccc1-c1csc(N=C2CCCCN2C(C)=O)n1 [compound 33, 1-[(2E/Z)-2-{[4-(2-ethoxyphenyl)-1,3-thiazol-2-yl]imino}piperidin-1-yl]ethanone] | 2.71 | 5.03 | 2.71 |
| Brc1ccc(Oc2ccccc2-c2csc(N=C3CCCCN3)n2)cc1 [compound 84, 4-[2-(4-bromophenoxy)phenyl]-N-[(2E/Z)-piperidin-2-ylidene]-1,3-thiazole-2-amine] | – | – | 2.14* |
| Brc1cccc(-c2csc(N=C3CCCCN3)n2)c1 [compound 46, 4-(3-bromophenyl)-N-[(2E/Z)-piperidin-2-ylidene]-1,3-thiazole-2-amine] | 1.8** | – | – |
| Clc1cccc(Oc2ccccc2-c2csc(N=C3CCCCN3)n2)c1 [compound 85, 4-[2-(3-chlorophenoxy)phenyl]-N-[(2E/Z)-piperidin-2-ylidene]-1,3-thiazole-2-amine] | – | – | 2.16* |
| Fc1ccc(Oc2ccccc2-c2csc(N=C3CCCCN3)n2)c(F)c1F [compound 77, N-[(2E/Z)-piperidin-2-ylidene]-4-[2-(2,3,4-trifluorophenoxy)phenyl]-1,3-thiazole-2-amine] | – | 4.17 | 2.01 |
| COc1cccc(-c2csc(N=C3CCCCN3)n2)c1 [compound 57, 4-(3-methoxyphenyl)-N-[(2E/Z)-piperidin-2-ylidene]-1,3-thiazole-2-amine] | – | 2.76 | 1.19 |
| Brc1ccc(-c2csc(N=C3CCCCN3)n2)cc1 [compound 3, 4-(4-bromophenyl)-N-[(2E/Z)-piperidin-2-ylidene]-1,3-thiazole-2-amine] | 1.67** | – | – |
| Clc1ccc(Oc2ccccc2-c2csc(N=C3CCCCN3)n2)cc1 [compound 74, 4-[2-(4-chlorophenoxy)phenyl]-N-[(2E/Z)-piperidin-2-ylidene]-1,3-thiazole-2-amine] | – | – | 2.03* |
| CC(=O)N1CCCCC1=Nc1nc(-c2cccc(C(F)(F)F)c2F)cs1 [compound 38, 1-[(2E/Z)-2-({4-[2-fluoro-3-(trifluoromethyl)phenyl]-1,3-thiazol-2-yl}imino)piperidin-1-yl]ethanone] | 4.25 | 4.23 | 4.25 |
| COc1ccc(-c2csc(N=C3CCCCN3)n2)cc1 [compound 56, 4-(4-methoxyphenyl)-N-[(2E/Z)-piperidin-2-ylidene]-1,3-thiazole-2-amine] | – | – | 1.18* |
| c1ccc(Cc2ccccc2-c2csc(N=C3CCCCN3)n2)cc1 [compound 81, 4-(2-benzylphenyl)-N-[(2E/Z)-piperidin-2-ylidene]-1,3-thiazole-2-amine] | – | 2.02*** | – |
| C=CCOc1ccccc1-c1csc(N=C2CCCCN2)n1 [compound 22, N-[(2E/Z)-piperidin-2-ylidene]-4-[2-(prop-2-en-1-yloxy)phenyl]-1,3-thiazole-2-amine] | 1.83 | 3.45 | 1.83 |
| Fc1ccc(Cc2ccccc2-c2csc(N=C3CCCCN3)n2)c(F)c1 [compound 88, 4-[2-(2,4-difluorobenzyl)phenyl]-N-[(2E/Z)-piperidin-2-ylidene]-1,3-thiazole-2-amine] | – | 4.27 | 2.04 |
| c1ccc(Oc2ccccc2-c2csc(N=C3CCCCN3)n2)cc1 [compound 10, 4-(2-phenoxyphenyl)-N-[(2E/Z)-piperidin-2-ylidene]-1,3-thiazole-2-amine] | 2.09 | 3.91 | 2.07 |
| Clc1cccc(-c2csc(N=C3CCCCN3)n2)c1Cl [compound 24, 4-(2,3-dichlorophenyl)-N-[(2E/Z)-piperidin-2-ylidene]-1,3-thiazole-2-amine] | 1.81 | 3.72 | 1.81 |
| CC(c1ccccc1)c1csc(N=C2CCCCN2)n1 (centres unmarked) [compound 73, 4-(1-phenylethyl)-N-[(2E/Z)-piperidin-2-ylidene]-1,3-thiazole-2-amine] | – | 3.27 | 1.51 |
| Brc1ccccc1Oc1ccccc1-c1csc(N=C2CCCCN2)n1 [compound 86, 4-[2-(2-bromophenoxy)phenyl]-N-[(2E/Z)-piperidin-2-ylidene]-1,3-thiazole-2-amine] | – | 4.38 | 2.06 |
| c1ccc(Oc2ccc(-c3csc(N=C4CCCCN4)n3)cc2)cc1 [compound 5, 4-(4-phenoxyphenyl)-N-[(2E/Z)-piperidin-2-ylidene]-1,3-thiazole-2-amine] | 2.17 | 3.97 | – |
| CC(=O)N1CCCCC1=Nc1nc(-c2ccccc2Oc2ccccc2)cs1 [compound 17, 1-[(2E/Z)-2-{[4-(2-phenoxyphenyl)-1,3-thiazol-2-yl]imino}piperidin-1-yl]ethanone] | 4.41 | 4.39 | 4.41 |
